Measured values reported in patent publication US20100267561A1, “HERBICIDAL PYRIDAZINONE DERIVATIVES” (priority 2007, published 2010).

Columns and labels:
Test in all cases: Test B pre-/postemergence plant response
Format in all cases: in vivo
[1] = system: bermudagrass (Cynodon dactylon)
How it was run: (§1)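 Preemergence and postemergence (plants 2-18 cm, 1- to 4-leaf stage) applications used test chemicals in a non-phytotoxic solvent with surfactant. Plants were held in a greenhouse 13 to 15 days, then rated visually against controls on a 0-100 scale (0 no effect, 100 complete control).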

[2] = system: cocklebur (Xanthium strumarium)
How it was run: as §1

[3] = system: corn (Zea mays)
How it was run: as §1

[4] = system: giant foxtail (Setaria faberii)
How it was run: as §1

[5] = system: goosegrass (Eleusine indica)
How it was run: as §1

[6] = system: green foxtail (Setaria viridis)
How it was run: as §1

[7] = system: kochia (Kochia scoparia)
How it was run: as §1

[8] = system: lambsquarters (Chenopodium album)
How it was run: as §1

[9] = system: soybean (Glycine max)
How it was run: as §1

[10] = system: velvetleaf (Abutilon theophrasti)
How it was run: as §1

[11] = system: wheat (Triticum aestivum)
How it was run: as §1

[12] = system: woolly cupgrass (Eriochloa villosa)
How it was run: as §1

[13] = system: yellow nutsedge (Cyperus esculentus)
How it was run: as §1

[14] = Postemergence, 31 g ai/ha, scale 0 to 100, 0 no effect, 100 complete control
[15] = Postemergence, 62 g ai/ha, scale 0 to 100
[16] = Postemergence, 125 g ai/ha, scale 0 to 100
[17] = Postemergence, 250 g ai/ha, scale 0 to 100
[18] = Preemergence, 31 g ai/ha, 0 to 100 scale, 0 no effect, 100 complete control
[19] = Preemergence, 62 g ai/ha, scale 0 to 100
[20] = Preemergence, 125 g ai/ha, scale 0 to 100
[21] = Preemergence, 250 g ai/ha, scale 0 to 100

Question: With `Cc1cc(-c2ccc(Br)cc2)nn1-c1c(OC(=O)OC(C)C)cnn(C)c1=O` [Compound 6] as the compound, how does the “Bermudagrass plant response rating” value ([1]; 250 g ai/ha, preemergence, 0-100 scale) read?
Answer: The value was 100.

Question: What about the “Plant response rating, Bermudagrass” value [1, 14] of the same compound?
Answer: The value was 100.

Question: What about the “Plant response rating, Bermudagrass” value [1, 15] of the same compound?
Answer: The value was 100.

Question: What about the “Plant response rating, Bermudagrass” value [1, 16] of the same compound?
Answer: The value was 100.

Question: And the “Plant response rating, Bermudagrass” value [1, 17]?
Answer: Its value is 100.

Question: What about the “Plant response rating, Bermudagrass” value [1, 18] of the same compound?
Answer: Its value is 100.

Question: What about the “Plant response rating, Bermudagrass” value [1, 19] of the same compound?
Answer: The value was 100.

Question: And the “Plant response rating, Bermudagrass” value [1, 20]?
Answer: The value was 100.

Question: What about the “Plant response rating, Cocklebur” value [2, 14] of the same compound?
Answer: Its value is 0.

Question: And the “Plant response rating, Cocklebur” value [2, 15]?
Answer: Its value is 0.

Question: What about the “Plant response rating, Cocklebur” value [2, 16] of the same compound?
Answer: Its value is 0.

Question: And the “Plant response rating, Cocklebur” value [2, 17]?
Answer: Its value is 40.

Question: And the “Plant response rating, Cocklebur” value [2, 18]?
Answer: The value was 0.

Question: And the “Plant response rating, Cocklebur” value [2, 19]?
Answer: Its value is 0.

Question: And the “Plant response rating, Cocklebur” value [2, 20]?
Answer: Its value is 0.

Question: And the “Plant response rating, Cocklebur” value [2, 21]?
Answer: Its value is 0.

Question: And the “Plant response rating, Corn” value [3, 14]?
Answer: Its value is 95.

Question: What about the “Plant response rating, Corn” value [3, 15] of the same compound?
Answer: Its value is 95.

Question: What about the “Plant response rating, Corn” value [3, 16] of the same compound?
Answer: Its value is 100.

Question: And the “Plant response rating, Corn” value [3, 17]?
Answer: Its value is 100.

Question: And the “Plant response rating, Corn” value [3, 18]?
Answer: The value was 95.

Question: What about the “Plant response rating, Corn” value [3, 19] of the same compound?
Answer: The value was 98.

Question: What about the “Plant response rating, Corn” value [3, 20] of the same compound?
Answer: The value was 98.

Question: And the “Plant response rating, Corn” value [3, 21]?
Answer: The value was 100.

Question: What about the “Plant response rating, Foxtail, Giant” value [4, 14] of the same compound?
Answer: The value was 100.

Question: What about the “Plant response rating, Foxtail, Giant” value [4, 15] of the same compound?
Answer: The value was 100.

Question: What about the “Plant response rating, Foxtail, Giant” value [4, 16] of the same compound?
Answer: Its value is 100.

Question: What about the “Plant response rating, Foxtail, Giant” value [4, 17] of the same compound?
Answer: The value was 100.

Question: What about the “Plant response rating, Foxtail, Giant” value [4, 18] of the same compound?
Answer: Its value is 100.

Question: And the “Plant response rating, Foxtail, Giant” value [4, 19]?
Answer: The value was 100.

Question: And the “Plant response rating, Foxtail, Giant” value [4, 20]?
Answer: Its value is 100.

Question: What about the “Plant response rating, Foxtail, Giant” value [4, 21] of the same compound?
Answer: The value was 100.

Question: What about the “Plant response rating, Goosegrass” value [5, 14] of the same compound?
Answer: Its value is 95.

Question: And the “Plant response rating, Goosegrass” value [5, 15]?
Answer: Its value is 100.

Question: What about the “Plant response rating, Goosegrass” value [5, 16] of the same compound?
Answer: The value was 100.

Question: And the “Plant response rating, Goosegrass” value [5, 17]?
Answer: Its value is 100.

Question: What about the “Plant response rating, Goosegrass” value [5, 18] of the same compound?
Answer: Its value is 80.

Question: What about the “Plant response rating, Goosegrass” value [5, 19] of the same compound?
Answer: Its value is 95.

Question: And the “Plant response rating, Goosegrass” value [5, 20]?
Answer: Its value is 100.

Question: What about the “Plant response rating, Goosegrass” value [5, 21] of the same compound?
Answer: The value was 100.

Question: And the “Plant response rating, Foxtail, Green” value [6, 14]?
Answer: Its value is 100.

Question: And the “Plant response rating, Foxtail, Green” value [6, 15]?
Answer: Its value is 100.

Question: And the “Plant response rating, Foxtail, Green” value [6, 16]?
Answer: The value was 100.

Question: What about the “Plant response rating, Foxtail, Green” value [6, 17] of the same compound?
Answer: Its value is 100.

Question: What about the “Plant response rating, Foxtail, Green” value [6, 18] of the same compound?
Answer: Its value is 100.

Question: What about the “Plant response rating, Foxtail, Green” value [6, 19] of the same compound?
Answer: Its value is 100.

Question: And the “Plant response rating, Foxtail, Green” value [6, 20]?
Answer: Its value is 100.

Question: What about the “Plant response rating, Foxtail, Green” value [6, 21] of the same compound?
Answer: The value was 100.

Question: And the “Plant response rating, Kochia” value [7, 14]?
Answer: The value was 0.

Question: What about the “Plant response rating, Kochia” value [7, 15] of the same compound?
Answer: Its value is 0.

Question: What about the “Plant response rating, Kochia” value [7, 16] of the same compound?
Answer: Its value is 20.

Question: And the “Plant response rating, Kochia” value [7, 17]?
Answer: Its value is 20.

Question: What about the “Plant response rating, Kochia” value [7, 18] of the same compound?
Answer: Its value is 0.

Question: What about the “Plant response rating, Kochia” value [7, 19] of the same compound?
Answer: The value was 0.

Question: What about the “Plant response rating, Kochia” value [7, 20] of the same compound?
Answer: Its value is 20.

Question: What about the “Plant response rating, Kochia” value [7, 21] of the same compound?
Answer: The value was 60.

Question: What about the “Plant response rating, Lambsquarters” value [8, 14] of the same compound?
Answer: The value was 0.

Question: What about the “Plant response rating, Lambsquarters” value [8, 15] of the same compound?
Answer: Its value is 0.

Question: And the “Plant response rating, Lambsquarters” value [8, 16]?
Answer: The value was 20.

Question: What about the “Plant response rating, Lambsquarters” value [8, 17] of the same compound?
Answer: Its value is 70.

Question: What about the “Plant response rating, Lambsquarters” value [8, 18] of the same compound?
Answer: The value was 0.

Question: And the “Plant response rating, Lambsquarters” value [8, 20]?
Answer: The value was 85.

Question: And the “Plant response rating, Lambsquarters” value [8, 21]?
Answer: The value was 95.

Question: What about the “Plant response rating, Soybean” value [9, 14] of the same compound?
Answer: The value was 0.

Question: And the “Plant response rating, Soybean” value [9, 15]?
Answer: Its value is 60.

Question: What about the “Plant response rating, Soybean” value [9, 16] of the same compound?
Answer: The value was 75.

Question: And the “Plant response rating, Soybean” value [9, 17]?
Answer: The value was 90.

Question: And the “Plant response rating, Soybean” value [9, 18]?
Answer: Its value is 0.

Question: What about the “Plant response rating, Soybean” value [9, 19] of the same compound?
Answer: Its value is 0.

Question: And the “Plant response rating, Soybean” value [9, 20]?
Answer: Its value is 40.

Question: And the “Plant response rating, Soybean” value [9, 21]?
Answer: Its value is 70.

Question: And the “Plant response rating, Velvetleaf” value [10, 14]?
Answer: The value was 0.

Question: What about the “Plant response rating, Velvetleaf” value [10, 15] of the same compound?
Answer: Its value is 0.

Question: What about the “Plant response rating, Velvetleaf” value [10, 16] of the same compound?
Answer: Its value is 0.

Question: What about the “Plant response rating, Velvetleaf” value [10, 17] of the same compound?
Answer: The value was 10.

Question: And the “Plant response rating, Velvetleaf” value [10, 18]?
Answer: Its value is 0.

Question: What about the “Plant response rating, Velvetleaf” value [10, 19] of the same compound?
Answer: Its value is 0.

Question: And the “Plant response rating, Velvetleaf” value [10, 20]?
Answer: Its value is 0.

Question: And the “Plant response rating, Velvetleaf” value [10, 21]?
Answer: Its value is 40.

Question: What about the “Plant response rating, Wheat” value [11, 14] of the same compound?
Answer: The value was 90.

Question: And the “Plant response rating, Wheat” value [11, 15]?
Answer: The value was 100.

Question: And the “Plant response rating, Wheat” value [11, 16]?
Answer: The value was 100.

Question: What about the “Plant response rating, Wheat” value [11, 17] of the same compound?
Answer: Its value is 100.

Question: What about the “Plant response rating, Wheat” value [11, 18] of the same compound?
Answer: The value was 35.

Question: And the “Plant response rating, Wheat” value [11, 19]?
Answer: Its value is 80.

Question: And the “Plant response rating, Wheat” value [11, 20]?
Answer: Its value is 90.

Question: What about the “Plant response rating, Wheat” value [11, 21] of the same compound?
Answer: The value was 90.

Question: And the “Plant response rating, Cupgrass, Woolly” value [12, 14]?
Answer: Its value is 100.

Question: And the “Plant response rating, Cupgrass, Woolly” value [12, 15]?
Answer: Its value is 100.

Question: And the “Plant response rating, Cupgrass, Woolly” value [12, 16]?
Answer: Its value is 100.

Question: What about the “Plant response rating, Cupgrass, Woolly” value [12, 17] of the same compound?
Answer: The value was 100.

Question: What about the “Plant response rating, Cupgrass, Woolly” value [12, 18] of the same compound?
Answer: Its value is 85.

Question: And the “Plant response rating, Cupgrass, Woolly” value [12, 19]?
Answer: Its value is 85.

Question: And the “Plant response rating, Cupgrass, Woolly” value [12, 20]?
Answer: The value was 85.

Question: What about the “Plant response rating, Cupgrass, Woolly” value [12, 21] of the same compound?
Answer: The value was 85.

Question: What about the “Plant response rating, Nutsedge, Yellow” value [13, 14] of the same compound?
Answer: Its value is 0.

Question: What about the “Plant response rating, Nutsedge, Yellow” value [13, 15] of the same compound?
Answer: The value was 0.

Question: What about the “Plant response rating, Nutsedge, Yellow” value [13, 16] of the same compound?
Answer: The value was 0.

Question: And the “Plant response rating, Nutsedge, Yellow” value [13, 17]?
Answer: Its value is 0.

Question: And the “Plant response rating, Nutsedge, Yellow” value [13, 18]?
Answer: The value was 0.

Question: And the “Plant response rating, Nutsedge, Yellow” value [13, 19]?
Answer: Its value is 0.

Question: What about the “Plant response rating, Nutsedge, Yellow” value [13, 20] of the same compound?
Answer: The value was 0.

Question: What about the “Plant response rating, Nutsedge, Yellow” value [13, 21] of the same compound?
Answer: The value was 0.
